Columns and labels:
[1] = test system: Male Crl: WI rats; experiment: Effect of suppressing impulsivity in rat (T-maze delayed large reward choice, i.p.); assay type: in vivo; details: 3 mg/kg, daily over 5 days, tested 40 min after administration, compared with vehicle control group
Text: Male Crl: WI rats were obtained at post-natal day 14 and weaning was occurred at post-natal day 21. Starting from then, the rats were housed 2-3 per cage and food-restricted (Day 1). The feeding amount was 5 g/day at post-natal day 21-28 (Day 1-8), 8.5 g/day at post-natal day 29-32 (Day 9-12), and 10 g/day at post-natal day 33-36 (Day 13-16), preventing their body weight from being 60% or less of the weight of the free feeding rats.
4 days after the beginning of the food restriction (Day 5), pellets were put on goal boxes located in the left-side and the right-side of T-maze. Then, the rats were allowed to freely explore the T-maze-box for 5 min to get habituated to the T-maze box and learn that the pellets were put on the goal boxes located in the left-side and the right-side. For 4 consecutive days from the next day (Day 6-9), one pellet (20 mg×1) was put in one side of the goal box as a small reward, and 5 pellets (20 mg×5) were put in the other side of the goal box as a large reward, and the rats were trained to learn their positions. Each rat underwent 10-trial per day trainings. […] The evaluations of the drug efficacy were started on Day 12. The compounds of the present invention were dissolved in distilled water containing 3% of 1 mol/L hydrochloric acid and administered i.p. to the trained rats to attain the dose of 1, 3 or 10 mg/kg. […]

[2] = target: human recombinant dopamine D2 receptor (Homo sapiens (Human), UniProt P14416); experiment: Test of binding inhibition for the human dopamine D2 receptor ([3H]-Metylspiperone SPA binding); details: [3H]-Metylspiperone 1.2 nM, Jump-In HEK cell membranes, read-out: hD2_Ki
Sequence of human recombinant dopamine D2 receptor (P14416 whole entry): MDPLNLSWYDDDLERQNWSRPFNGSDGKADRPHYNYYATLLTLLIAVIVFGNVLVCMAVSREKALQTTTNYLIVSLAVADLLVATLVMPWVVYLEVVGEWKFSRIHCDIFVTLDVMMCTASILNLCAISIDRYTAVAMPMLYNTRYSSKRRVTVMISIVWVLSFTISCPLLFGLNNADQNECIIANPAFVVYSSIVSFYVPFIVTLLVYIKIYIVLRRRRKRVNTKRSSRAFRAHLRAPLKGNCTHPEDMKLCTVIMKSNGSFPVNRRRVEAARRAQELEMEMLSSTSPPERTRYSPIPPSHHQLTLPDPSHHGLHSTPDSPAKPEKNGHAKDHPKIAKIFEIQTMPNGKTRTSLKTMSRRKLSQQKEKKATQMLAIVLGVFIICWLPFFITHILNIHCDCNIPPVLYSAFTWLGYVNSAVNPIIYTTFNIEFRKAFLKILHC
How it was run: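 Scintillation proximity binding with HEK membranes expressing human D2 receptor (2 μg/well), 1.2 nM [3H]-methylspiperone, in Tris-HCl pH 7.4 with NaCl, MgCl2, KCl and CaCl2; 120 min at 25° C.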

[3] = target: human recombinant dopamine D3 receptor (Homo sapiens (Human), UniProt P35462); experiment: Test of binding inhibition for the human dopamine D3 receptor ([3H]-Metylspiperone SPA binding); details: [3H]-Metylspiperone 2 nM, Jump-In HEK cell membranes, read-out: hD3_Ki
Sequence of human recombinant dopamine D3 receptor (P35462 whole entry): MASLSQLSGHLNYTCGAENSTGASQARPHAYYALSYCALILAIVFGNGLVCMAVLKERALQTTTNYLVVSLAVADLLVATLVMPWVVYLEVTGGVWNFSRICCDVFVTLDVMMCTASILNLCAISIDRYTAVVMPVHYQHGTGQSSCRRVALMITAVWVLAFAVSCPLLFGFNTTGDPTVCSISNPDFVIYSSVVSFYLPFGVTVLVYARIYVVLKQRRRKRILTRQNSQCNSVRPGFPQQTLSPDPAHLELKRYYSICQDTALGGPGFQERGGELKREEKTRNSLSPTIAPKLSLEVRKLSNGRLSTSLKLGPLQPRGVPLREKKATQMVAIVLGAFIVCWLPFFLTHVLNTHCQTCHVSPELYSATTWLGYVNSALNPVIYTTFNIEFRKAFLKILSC

Row | SMILES | Ki [2] | Ki [3] | number of choices of the large reward during total 50 trials of 5 days [1]
1 | O=C(N[C@H]1CC[C@H](CCN2CCc3sc(OCC(F)F)nc3C2)CC1)c1cccc2ncccc12 [Compound I-085] |  |  | significantly increased
2 | Cn1cc2c(C(=O)N[C@H]3CC[C@H](CCN4CCc5nc(OCC(F)F)sc5CC4)CC3)cccc2n1 [II-026] | > 1700 nM | 0.2 nM | 
3 | O=C(N[C@H]1CC[C@H](CCN2CCc3nc(-c4ccccc4)sc3C2)CC1)c1cccc2ncccc12 [Compound I-018] | > 1700 nM | 12 nM | 
4 | O=C(N[C@H]1CC[C@H](CCN2CCc3ccc(OCC(F)F)nc3C2)CC1)c1cccc2ncccc12 [Compound I-139] | > 1700 nM | 0.69 nM | 
5 | Cn1cc(CC(=O)N[C@H]2CC[C@H](CCN3CCc4sc(OCC(F)F)nc4C3)CC2)cn1 [Compound I-108] | 1400 nM | 1.5 nM | 
6 | CC1c2nc(OCC(F)F)sc2CCN1CC[C@H]1CC[C@H](NC(=O)c2cccc3ncccc23)CC1 (stereo partly drawn) [Compound I-101] | > 1700 nM | 8.1 nM | 
7 | CN1Cc2c(C(=O)N[C@H]3CC[C@H](CCN4CCc5nc(OCC(F)(F)F)sc5CC4)CC3)cccc2C1=O [II-047] | 280 nM | 0.022 nM | 

Further lines, with some results ahead:

Row | Ki [2] | Ki [3] | SMILES | number of choices of the large reward during total 50 trials of 5 days [1]
8 | 190 nM | 0.15 nM | CCN1Cc2c(C(=O)N[C@H]3CC[C@H](CCN4CCc5sc(CCC(F)(F)F)nc5C4)CC3)cccc2C1=O [III-701] | 
9 | 610 nM | 0.49 nM | Cc1ncc(CC(=O)N[C@H]2CC[C@H](CCN3CCc4sc(OCC(F)(F)F)nc4C(C)C3)CC2)s1 (stereo partly drawn) [III-110] | 
10 | 140 nM | 0.012 nM | CN1Cc2c(C(=O)N[C@H]3CC[C@H](CCN4CCc5ccc(OCC(C)(F)F)nc5CC4)CC3)cccc2C1=O [III-024] | 
11 | 1100 nM | 0.5 nM | Cc1nc(CC(=O)N[C@H]2CC[C@H](CCN3CCc4ccc(OCC(F)(F)F)nc4CC3)OC2)no1 [III-001] | 
12 | 800 nM | 0.2 nM | Cc1ncc(CC(=O)N[C@H]2CC[C@H](CCN3CCc4sc(CCC(F)(F)F)nc4C3)CC2)o1 [III-696] | 
13 | 850 nM | 0.44 nM | Cn1cc(CC(=O)N[C@H]2CC[C@H](CCN3CCc4sc(OC5CCC(F)(F)C5)nc4C3)CC2)cn1 (stereo partly drawn) [III-484] | 
14 | 380 nM | 0.51 nM | CCn1c(C(=O)N[C@H]2CC[C@H](CCN3CCc4sc(CCC(F)(F)F)nc4C3)CC2)cccc1=O [III-704] | 
15 | > 1800 nM | 0.67 nM | Cc1cc(CC(=O)N[C@H]2CC[C@](F)(CCN3CCc4nc(OCC(F)(F)F)sc4CC3)CC2)no1 [III-255] | 
16 | > 1800 nM | 0.15 nM | Cc1cnc(CC(=O)N[C@H]2CC[C@](F)(CCN3CCc4nc(OCC(F)(F)F)sc4CC3)CC2)o1 [III-266] | 
17 | 1100 nM | 1.1 nM | Cc1nnc(CC(=O)N[C@H]2CC[C@H](CCN3CCc4sc(CCC(F)(F)F)nc4C3)CC2)o1 [III-674] | 
